Source: the supplement of paper PMC10307832

How the values were obtained:
Experiment in all cases: relative viability (nuclei count vs DMSO), 5 days (fraction); higher = more cells survive
[1] = compound: C[As](C)SC[C@H](NC(=O)CC[C@H](N)C(=O)O)C(=O)NCC(=O)O [Darinaparsin] + CC(=O)c1c(C)c2cnc(Nc3ccc(N4CCNCC4)cn3)nc2n(C2CCCC2)c1=O [Palbociclib] (partner 0.5 µM)
Outline: (§1)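 After 5 days of treatment, lung cancer cells in 1536-well plates were fixed and stained in a single step (final 0.05% Triton X-100, 1% formaldehyde, 1 ug/ml Hoechst) and their nuclei counted on 4× images. Treatment had been applied by pin tool the day after seeding as one drug alone or as a fixed anchor-drug dose with five library-drug doses (not always all listed) in √10 steps. Relative viability is the nuclei count of treated wells divided by that of vehicle wells, and values are medians of duplicate plates.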

AZ628 + Tozasertib = compound: CC1=C(C=C(C=C1)NC(=O)C2=CC(=CC=C2)C(C)(C)C#N)NC3=CC4=C(C=C3)N=CN(C4=O)C [AZ628] + Cc1cc(Nc2cc(N3CCN(C)CC3)nc(Sc3ccc(NC(=O)C4CC4)cc3)n2)n[nH]1 [Tozasertib] (partner 0.1 µM)
Outline: as §1

[2] = compound: C[As](C)SC[C@H](NC(=O)CC[C@H](N)C(=O)O)C(=O)NCC(=O)O [Darinaparsin] + Nc1ncn([C@H]2C[C@H](O)[C@@H](CO)O2)c(=O)n1 [Decitabine] (partner 2 µM)
Outline: as §1

Darinaparsin + Alpelisib = compound: C[As](C)SC[C@H](NC(=O)CC[C@H](N)C(=O)O)C(=O)NCC(=O)O [Darinaparsin] + Cc1nc(NC(=O)N2CCC[C@H]2C(N)=O)sc1-c1ccnc(C(C)(C)C(F)(F)F)c1 [Alpelisib] (partner 2 µM)
Outline: as §1

| Cell Line | relative viability ([1]; first compound 0.08 µM) | relative viability ([1]; first compound 0.8 µM) | relative viability ([1]; first compound 2.53 µM) | relative viability ([1]; first compound 8 µM) | relative viability (AZ628 + Tozasertib; first compound 0.08 µM) | relative viability (AZ628 + Tozasertib; first compound 0.253 µM) | relative viability (AZ628 + Tozasertib; first compound 0.8 µM) | relative viability (AZ628 + Tozasertib; first compound 2.53 µM) | relative viability (AZ628 + Tozasertib; first compound 8 µM) | relative viability ([2]; first compound 0.08 µM) | relative viability ([2]; first compound 0.8 µM) | relative viability ([2]; first compound 2.53 µM) | relative viability ([2]; first compound 8 µM) | relative viability (Darinaparsin + Alpelisib; first compound 0.08 µM) | relative viability (Darinaparsin + Alpelisib; first compound 0.8 µM) | relative viability (Darinaparsin + Alpelisib; first compound 2.53 µM) | relative viability (Darinaparsin + Alpelisib; first compound 8 µM) |
| --- | --- | --- | --- | --- | --- | --- | --- | --- | --- | --- | --- | --- | --- | --- | --- | --- | --- |
| NCI-H460 | 0.147 | 0.176 | 0.117 | 0.181 | 0.449 | 0.186 | 0.146 | 0.382 | 0.053 | 0.749 | 0.496 | 0.461 | 0.59 | 0.566 | 0.549 | 0.417 | 0.821 |
| HARA | 0.25 | 0.257 | 0.21 | 0.29 | 0.144 | 0.122 | 0.111 | 0.0923 | 0.0666 | 0.6 | – | 0.51 | 0.603 | 0.868 | 0.682 | 0.756 | 1.19 |
| NCI-H2085 | 0.466 | 0.482 | 0.508 | 0.457 | 0.754 | 0.899 | 0.935 | 0.743 | 0.382 | 0.532 | 0.474 | 0.601 | 0.527 | 1.07 | 1 | 1.03 | 0.957 |
| NCI-H1395 | 0.617 | 0.54 | 0.54 | 0.646 | 0.814 | 0.809 | 0.753 | 0.742 | 0.681 | 0.79 | 0.659 | 0.727 | 0.645 | 1.17 | 0.912 | 0.909 | 0.945 |
| RERF-LC-KJ | 1.13 | 1.11 | 1.02 | 1.08 | 0.506 | 0.526 | 0.452 | 0.493 | 0.307 | 0.728 | 0.68 | 0.687 | 0.561 | 0.865 | 0.917 | 0.73 | 0.873 |
| HCC-78 | 0.46 | 0.509 | 0.475 | 0.503 | 0.445 | 0.383 | 0.463 | 0.346 | 0.465 | 0.729 | 0.668 | 0.65 | 0.853 | 0.363 | 0.301 | 0.358 | 0.259 |
| NCI-H2087 | 0.225 | 0.215 | 0.169 | 0.204 | 0.251 | 0.174 | 0.19 | 0.204 | 0.132 | 0.322 | 0.286 | 0.28 | 0.282 | 1.15 | 0.988 | 1.13 | 1.18 |
| SK-LU-1 | 0.381 | 0.338 | 0.339 | 0.347 | – | 0.275 | 0.287 | 0.255 | 0.283 | 0.637 | 0.587 | 0.495 | 0.759 | 1.11 | 0.956 | 0.797 | 1.06 |
| EMC-BAC-2 | 0.516 | 0.491 | 0.515 | 0.54 | 0.294 | 0.335 | 0.381 | 0.349 | 0.362 | 0.916 | 0.907 | 1.18 | 0.969 | 0.894 | 0.687 | 0.709 | 0.888 |
| A-427 | 0.585 | 0.494 | 0.567 | 0.549 | 0.155 | 0.138 | 0.146 | 0.142 | 0.146 | 0.569 | 0.517 | 0.581 | 0.493 | 1.11 | 1.05 | 1.08 | 1.12 |
| NCI-H727 | 0.692 | 0.573 | 0.698 | 0.585 | 0.551 | 0.316 | 0.32 | 0.404 | 0.274 | 0.891 | 0.816 | 0.9 | 1.04 | 0.718 | 0.587 | 0.549 | 0.683 |
| NCI-H2170 | 0.427 | 0.425 | 0.385 | 0.411 | 0.823 | 0.741 | 0.693 | 0.852 | 0.667 | 0.488 | 0.502 | 0.544 | 0.458 | 0.927 | 0.759 | 0.629 | 1.13 |
| COR-L23 | 0.303 | 0.335 | 0.246 | 0.299 | 0.186 | 0.15 | 0.157 | 0.146 | 0.12 | 0.496 | 0.394 | 0.348 | 0.496 | 1.02 | 0.707 | 0.585 | 0.893 |
| PC-3 [JPC-3] | 0.553 | 0.516 | 0.542 | 0.547 | 0.909 | 0.909 | 0.926 | 0.91 | 0.798 | 0.748 | 0.773 | 0.847 | 0.796 | 1.02 | 0.982 | 0.992 | 1.11 |
| NCI-H520 | 0.149 | 0.208 | 0.216 | 0.248 | 0.407 | 0.453 | 0.365 | 0.422 | 0.412 | 0.528 | 0.55 | 0.472 | 0.552 | 1.07 | 0.712 | 0.885 | 1.04 |
| HCC-827 | 0.514 | 0.519 | 0.414 | 0.477 | 0.43 | 0.468 | 0.374 | 0.494 | 0.344 | 0.284 | 0.316 | 0.32 | 0.363 | 1.05 | 1.04 | 1.01 | 1.04 |
| NCI-H1666 | 0.666 | 0.673 | 0.634 | 0.678 | 0.605 | 0.567 | 0.565 | 0.551 | 0.479 | 0.679 | 0.74 | 0.766 | 0.786 | 1.11 | 0.967 | 1.14 | 1.06 |
| NCI-H322M | 0.478 | 0.456 | 0.487 | 0.442 | 0.468 | 0.497 | 0.459 | 0.474 | 0.404 | 0.704 | 0.686 | 0.577 | 0.724 | 0.89 | 0.692 | 0.632 | 0.787 |
| NCI-H838 | 0.245 | 0.216 | 0.229 | 0.229 | 0.27 | 0.302 | 0.281 | 0.288 | 0.212 | 0.488 | 0.425 | 0.47 | 0.513 | 1.18 | 1 | 0.846 | 1.14 |
